Series [1] concerns the target T1, GC receptor (Homo sapiens, UniProt P47871).
T1 construct: expressed in transfected cells; host or cells: HEK293 cells
Put plainly: GC receptor mediated cAMP production in vitro (HEK293 cells transfected with GC receptor). It counts as cell-based. The conditions noted are these: 20 min at 37° C., read-out: GCGR (nM EC50). An excerpt: The medium was removed, the cells were lysed, and cAMP values were detected referring to the detection method described for the assay kit.

Series [2] in a line: physchem. It counts as physicochemical. The conditions noted are these: pH 7.5, Solubility.

Numbered stars: 1 amine (or outer) side, 2 acyl side, 3 side chain; on linkers, the order of the positions; unused ones are H or OH. Square brackets hold non-standard residues; d marks the D form. Side chains are listed from the residue outwards. Peptide text beside a SMILES is read from it. * marks the point of attachment. C20 diacid = O=C(O)CCCCCCCCCCCCCCCCCCC(=O)*; C18 diacid = O=C(O)CCCCCCCCCCCCCCCCC(=O)*; γGlu = O=C(O)[C@H](CCC(=O)[*:2])N[*:1]; AEEA = NCCOCCOCC(=O)O; Aib = CC(C)(N)C(=O)O

For orientation: EC50 means the midpoint of the concentration-response curve. Usually solubility stands for the dissolved amount per volume that the medium holds. A low value points to little dissolved substance.
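Throughout, for Solubility: compound added at 2 mg per mL of phosphate buffer, with the dissolved amount determined in the supernatant.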

T1 sequence (P47871 26-477): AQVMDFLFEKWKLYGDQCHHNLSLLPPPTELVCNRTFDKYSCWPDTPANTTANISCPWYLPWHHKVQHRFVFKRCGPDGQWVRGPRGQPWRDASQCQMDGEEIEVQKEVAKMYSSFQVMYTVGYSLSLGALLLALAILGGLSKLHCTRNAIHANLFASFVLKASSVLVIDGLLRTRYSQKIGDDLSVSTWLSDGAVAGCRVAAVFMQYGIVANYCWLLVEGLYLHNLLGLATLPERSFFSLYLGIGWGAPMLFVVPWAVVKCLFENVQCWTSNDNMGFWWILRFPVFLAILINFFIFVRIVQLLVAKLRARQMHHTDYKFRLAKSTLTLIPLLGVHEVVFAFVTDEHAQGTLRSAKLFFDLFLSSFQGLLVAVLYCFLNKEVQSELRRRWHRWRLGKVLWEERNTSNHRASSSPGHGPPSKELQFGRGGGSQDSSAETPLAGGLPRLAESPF

Turning to `CC[C@H](C)[C@H](NC(=O)[C@H](Cc1ccccc1)NC(=O)[C@H](CCC(=O)O)NC(=O)[C@H](CCCCN)NC(=O)[C@H](C)NC(=O)[C@H](CCCNC(=N)N)NC(=O)[C@H](CCCCN)NC(=O)[C@H](CCC(=O)O)NC(=O)[C@H](CC(=O)O)NC(=O)[C@H](CC(C)C)NC(=O)[C@H](Cc1ccc(O)cc1)NC(=O)[C@H](CCCCN)NC(=O)[C@H](CO)NC(=O)[C@H](CCCCNC(=O)COCCOCCNC(=O)COCCOCCNC(=O)CC[C@H](NC(=O)CCCCCCCCCCCCCCCCC(=O)O)C(=O)O)NC(=O)[C@H](CC(=O)O)NC(=O)[C@H](CO)NC(=O)[C@@H](NC(=O)[C@H](Cc1ccccc1)NC(=O)[C@@H](NC(=O)CNC(=O)[C@H](CCC(N)=O)NC(=O)C(C)(C)NC(=O)[C@@H](N)Cc1c[nH]cn1)[C@@H](C)O)[C@@H](C)O)C(=O)N[C@@H](CCC(=O)O)C(=O)N[C@@H](Cc1c[nH]c2ccccc12)C(=O)N[C@@H](CC(C)C)C(=O)N[C@@H](CCC(=O)O)C(=O)N[C@@H](C)C(=O)NCC(=O)NCC(=O)N1CCC[C@H]1C(=O)N[C@@H](CO)C(=O)N[C@@H](CO)C(=O)NCC(N)=O` [Compound 23] (H-H[Aib]QGTFTSDK([AEEA-AEEA-γGlu-C18 diacid])SKYLDEKRAKEFIEWLEAGGPSSG-NH2; N-terminus assumed), in series [1], the half-maximal effective concentration (EC50) amounted to 0.329 nM.

As for `CC(C)C[C@H](NC(=O)[C@H](Cc1c[nH]c2ccccc12)NC(=O)[C@H](C)NC(=O)[C@@H](NC(=O)[C@H](Cc1ccccc1)NC(=O)[C@H](CCC(=O)O)NC(=O)[C@H](CCCCNC(=O)COCCOCCNC(=O)COCCOCCNC(=O)CC[C@H](NC(=O)CCCCCCCCCCCCCCCCC(=O)O)C(=O)O)NC(=O)[C@H](C)NC(=O)[C@H](CCCNC(=N)N)NC(=O)[C@H](CCCCN)NC(=O)[C@H](CCC(=O)O)NC(=O)[C@H](CCC(=O)O)NC(=O)[C@H](CC(C)C)NC(=O)[C@H](Cc1ccc(O)cc1)NC(=O)[C@H](CCCCN)NC(=O)[C@H](CO)NC(=O)[C@H](Cc1ccc(O)cc1)NC(=O)[C@H](CC(=O)O)NC(=O)[C@H](CO)NC(=O)[C@@H](NC(=O)[C@H](Cc1ccccc1)NC(=O)[C@@H](NC(=O)CNC(=O)[C@H](CCC(N)=O)NC(=O)C(C)(C)NC(=O)[C@@H](N)Cc1c[nH]cn1)[C@@H](C)O)[C@@H](C)O)C(C)C)C(=O)N[C@@H](CCC(=O)O)C(=O)N[C@@H](C)C(=O)NCC(=O)NCC(=O)N1CCC[C@H]1C(=O)N[C@@H](CO)C(=O)N[C@@H](CO)C(=O)NCC(N)=O` [Compound 53] (H-H[Aib]QGTFTSDYSKYLEEKRAK([AEEA-AEEA-γGlu-C18 diacid])EFVAWLEAGGPSSG-NH2; N-terminus assumed), in series [1], the EC50 came to 0.316 nM. The same measure, in the same setting: under `CC[C@H](C)[C@H](NC(=O)[C@H](Cc1ccccc1)NC(=O)[C@H](CCC(=O)O)NC(=O)[C@H](CCCCNC(=O)COCCOCCNC(=O)COCCOCCNC(=O)CC[C@H](NC(=O)CCCCCCCCCCCCCCCCCCC(=O)O)C(=O)O)NC(=O)[C@H](C)NC(=O)[C@H](CCCCN)NC(=O)[C@H](CCCNC(=N)N)NC(=O)[C@H](CCC(=O)O)NC(=O)[C@H](CCC(=O)O)NC(=O)[C@H](CC(C)C)NC(=O)[C@H](Cc1ccc(O)cc1)NC(=O)[C@H](CCCCN)NC(=O)[C@H](CO)NC(=O)[C@H](Cc1ccc(O)cc1)NC(=O)[C@H](CC(=O)O)NC(=O)[C@H](CO)NC(=O)[C@@H](NC(=O)[C@H](Cc1ccccc1)NC(=O)[C@@H](NC(=O)CNC(=O)[C@H](CCC(N)=O)NC(=O)C(C)(C)NC(=O)[C@@H](N)Cc1c[nH]cn1)[C@@H](C)O)[C@@H](C)O)C(=O)N[C@@H](C)C(=O)N[C@@H](Cc1c[nH]c2ccccc12)C(=O)N[C@@H](CC(C)C)C(=O)N[C@@H](CCC(=O)O)C(=O)NCC(=O)NCC(=O)N1CCC[C@H]1C(=O)N[C@@H](CO)C(=O)N[C@@H](CO)C(=O)NCC(N)=O` [Compound 68] (H-H[Aib]QGTFTSDYSKYLEERKAK([AEEA-AEEA-γGlu-C20 diacid])EFIAWLEGGPSSG-NH2; N-terminus assumed) stands 0.314 nM.

With `CC[C@H](C)[C@H](NC(=O)[C@H](Cc1ccccc1)NC(=O)[C@H](CCC(=O)O)NC(=O)[C@H](CCCCN)NC(=O)[C@H](C)NC(=O)[C@H](C)NC(=O)[C@H](CCCNC(=N)N)NC(=O)[C@H](CCC(=O)O)NC(=O)[C@H](CC(=O)O)NC(=O)[C@H](CC(C)C)NC(=O)[C@H](Cc1ccc(O)cc1)NC(=O)[C@H](CCCCN)NC(=O)[C@H](CO)NC(=O)[C@H](CCCCNC(=O)COCCOCCNC(=O)COCCOCCNC(=O)CC[C@H](NC(=O)CCCCCCCCCCCCCCCCC(=O)O)C(=O)O)NC(=O)[C@H](CC(=O)O)NC(=O)[C@H](CO)NC(=O)[C@@H](NC(=O)[C@H](Cc1ccccc1)NC(=O)[C@@H](NC(=O)CNC(=O)[C@H](CCC(N)=O)NC(=O)[C@H](CO)NC(=O)[C@@H](N)Cc1c[nH]cn1)[C@@H](C)O)[C@@H](C)O)C(=O)N[C@@H](C)C(=O)N[C@@H](Cc1c[nH]c2ccccc12)C(=O)N[C@@H](CC(C)C)C(=O)N[C@@H](CCC(=O)O)C(=O)N[C@@H](C)C(=O)NCC(=O)NCC(=O)N1CCC[C@H]1C(=O)N[C@@H](CO)C(=O)N[C@@H](CO)C(=O)NCC(N)=O` [Compound 79] (H-HSQGTFTSDK([AEEA-AEEA-γGlu-C18 diacid])SKYLDERAAKEFIAWLEAGGPSSG-NH2; N-terminus assumed), the EC50 in series [1] is 0.025 nM. In the case of `CC(C)C[C@H](NC(=O)[C@H](Cc1c[nH]c2ccccc12)NC(=O)[C@H](C)NC(=O)[C@@H](NC(=O)[C@H](Cc1ccccc1)NC(=O)[C@H](CCC(=O)O)NC(=O)[C@H](CCCCN)NC(=O)[C@H](C)NC(=O)[C@H](C)NC(=O)[C@H](CCCNC(=N)N)NC(=O)[C@H](CCC(=O)O)NC(=O)[C@H](CC(=O)O)NC(=O)[C@H](CC(C)C)NC(=O)[C@H](Cc1ccc(O)cc1)NC(=O)[C@H](CCCCN)NC(=O)[C@H](CO)NC(=O)[C@H](CCCCNC(=O)COCCOCCNC(=O)COCCOCCNC(=O)CC[C@H](NC(=O)CCCCCCCCCCCCCCCCC(=O)O)C(=O)O)NC(=O)[C@H](CC(=O)O)NC(=O)[C@H](CO)NC(=O)[C@@H](NC(=O)[C@H](Cc1ccccc1)NC(=O)[C@@H](NC(=O)CNC(=O)[C@H](CCC(N)=O)NC(=O)C(C)(C)NC(=O)[C@@H](N)Cc1c[nH]cn1)[C@@H](C)O)[C@@H](C)O)C(C)C)C(=O)N[C@@H](CCC(=O)O)C(=O)N[C@@H](C)C(=O)NCC(=O)NCC(=O)N1CCC[C@H]1C(=O)N[C@@H](CO)C(=O)N[C@@H](CO)C(=O)NCC(N)=O` [Compound 24] (H-H[Aib]QGTFTSDK([AEEA-AEEA-γGlu-C18 diacid])SKYLDERAAKEFVAWLEAGGPSSG-NH2), the solubility is above 2000 µg/mL in series [2] (pH 7.5, 10 mM phosphate buffer) and above 2000 µg/mL in series [2] (pH 7.5, 20 mM phosphate buffer).

For the origin of these results see patent US12257287B2, “Glucagon-derived peptide and use thereof” (Tianjin Institute of Pharmaceutical Research Co., Ltd., priority 2018, dated 2025).
